Measured values from publication PMC10244282 (Naunyn-Schmiedeberg's Archives of Pharmacology, 2023).

What was measured:
[1] = biological target: T1, human 5-HT4 receptor (Homo sapiens, UniProt Q13639); assay: Isolated electrically stimulated (1 Hz) left atrial preparations from 5-HT4-TG mice, organ bath contractility; parameters: species or system human (expressed in cardiomyocytes of transgenic mice)
T1 construct: expressed in transfected cells; host or cells: cardiomyocytes of transgenic mice (alpha-myosin heavy chain promoter); isolated left and right atria and Langendorff-perfused hearts
Text: (§1) A mouse with cardiomyocyte-specific expression of the human 5-HT4(a) receptor has been generated in our laboratory (Gergs et al. [2010]). The cardiac myocyte-specific expression was achieved by the use of the α-myosin heavy chain promoter. The age of the animals studied in the atrial contraction experiments was around 4 months. Both genders were studied. All mice were housed under conditions of optimum light, temperature, and humidity with food and water provided ad libitum. The investigation conformed to the Guide for the Care and Use of Laboratory Animals as published by the National Research Council (2011). The animals were handled and maintained according to the approved protocols of the Animal Welfare Committee of the University of Halle-Wittenberg, Halle, Germany.
(§2) In brief, the right or left atrial preparations from the mice were isolated and mounted in organ baths as previously described (Gergs et al. [2013]; Neumann et al. [2003]). […] The solution was continuously gassed with 95% O2 and 5% CO2 and maintained at 37 °C and pH 7.4 (Kirchhefer et al. [2004]; Neumann et al. [1998], [2003]). Spontaneously beating right atrial preparations from mice were used to study any chronotropic effects.
(§3) The drug application was as follows.

[2] = biological target: T1, human 5-HT4 receptor; assay: Spontaneously beating right atrial preparations from 5-HT4-TG mice, beating rate; parameters: species or system human (expressed in cardiomyocytes of transgenic mice); conditions: right atrium of 5-HT4-TG; for Beating rate: 5-HT 1 µM; for Beating rate / Beating rate in % of 1 µM 5-HT: bufotenin 3 µM, tryptamine 100 µM
Text: as §1, §2, §3

[3] = system: atrial preparations from WT mice; assay: Isolated left and right atrial preparations from wild-type (WT) littermates; parameters: species or system mouse; conditions: for effect on beating rate in WT right atrium: spontaneously beating right atrium
Procedure: as §2, §3

[4] = biological target: T1, human 5-HT4 receptor; assay: Langendorff perfused hearts from 5-HT4-TG mice; parameters: species or system human (expressed in cardiomyocytes of transgenic mice); conditions: 1 µM, n = 5, p < 0.05
Procedure: (§4) We followed previously reported methods for the treatment of the animals. This included the removal of the heart and lungs from the thoracic cavity, placing the dissected heart onto a cannula, the use of custom-made equipment, the buffer composition, quantification of the force from the left ventricular apex, digitization of the recordings, and freeze clamping the hearts (Boknik et al. [2019]; Gergs et al. [2019b]).
(§5) Isolated hearts were prepared according to Langendorff (1895).

[5] = system: Langendorff hearts from WT mice; assay: Langendorff perfused hearts from WT mice; parameters: species or system mouse; conditions: data not shown, n = 3
Procedure: as §4, §5

[6] = biological target: T2, human cardiac 5-HT4 receptors (Homo sapiens, UniProt Q13639); assay: Isolated electrically stimulated (1 Hz) human right atrial preparations, contractility
T2 construct: from tissue; host or cells: human right atrial preparations (musculi pectinati) from male bypass-surgery patients
Text: The contractile studies on human right atrial preparations were done using the same setup and buffer as used in the mouse studies (see “Contractile studies in mice” section). The samples were obtained from male patients that underwent a bypass surgery (Table 1). Drug therapy included β-receptor blockers, calcium channel blockers, angiotensin-converting enzyme inhibitors/angiotensin receptor blockers, diuretics, direct oral anti-coagulants, metformin, statins, and acetyl salicylic acid. Our methods used for atrial contraction studies in human samples have been previously published and were not altered in this study (Boknik et al. [2019]; Gergs et al. [2009], [2017b], [2018]). This study complies with the Declaration of Helsinki and has been approved by the local ethics committee (hm-bü 04.08.2005) and all patients gave informed consent.

[7] = system: phosphorylation state of phospholamban (serine 16); assay: Western blot of serine 16 phosphorylation of phospholamban in human right atrial preparations; conditions: electrically stimulated human right atrial preparations
Text: This is seen in the original tracings (Fig. 7A). […] Calsequestrin was monitored as a loading control in these gels. […] The mouse samples are shown for comparison.

[8] = biological target: porcine 5-HT4 receptors; parameters: method as in Medhurst and Kaumann [1993]; conditions: isolated right atrial preparations of pigs; ref Medhurst and Kaumann [1993]; cited from earlier work
[9] = parameters: method as in Ott [2001]; conditions: humans, ref Ott [2001], cited from earlier work
[10] = system: phosphorylation state of phospholamban (serine 16); assay: Western blot of serine 16 phosphorylation of phospholamban in cardiac preparations of WT mice; conditions: 1 µM; Langendorff hearts from WT
[11] = system: phosphorylation state of phospholamban (serine 16); assay: Western blot of serine 16 phosphorylation of phospholamban in cardiac preparations of 5-HT4-TG mice; conditions: 1 µM
[12] = system: MAO A; parameters: method as in Fisar et al. [2010]; conditions: in vitro, irreversible; ref Fisar et al. [2010]; read-out: IC50 (half inhibitory concentration) MAO A; cited from earlier work
[13] = system: MAO B; parameters: method as in Fisar et al. [2010]; conditions: in vitro, irreversible; ref Fisar et al. [2010]; read-out: IC50 (half inhibitory concentration) MAO B; cited from earlier work
[14] = left atrium of 5-HT4-TG, 5-HT 1 µM, bufotenin 3 µM, tryptamine 100 µM
[15] = left atrium of 5-HT4-TG, bufotenin 3 µM, tryptamine 100 µM
[16] = pD2 (negative decadic logarithm of EC50), force of contraction, left atrium of 5-HT4-TG
[17] = pD2, dF/dtmax, left atrium of 5-HT4-TG
[18] = pD2, dF/dtmin, left atrium of 5-HT4-TG
[19] = pD2, time of relaxation (TR), left atrium of 5-HT4-TG
[20] = pD2, time to peak (TTP), left atrium of 5-HT4-TG

T1 sequence (Q13639 1-387 isoform Q13639-2): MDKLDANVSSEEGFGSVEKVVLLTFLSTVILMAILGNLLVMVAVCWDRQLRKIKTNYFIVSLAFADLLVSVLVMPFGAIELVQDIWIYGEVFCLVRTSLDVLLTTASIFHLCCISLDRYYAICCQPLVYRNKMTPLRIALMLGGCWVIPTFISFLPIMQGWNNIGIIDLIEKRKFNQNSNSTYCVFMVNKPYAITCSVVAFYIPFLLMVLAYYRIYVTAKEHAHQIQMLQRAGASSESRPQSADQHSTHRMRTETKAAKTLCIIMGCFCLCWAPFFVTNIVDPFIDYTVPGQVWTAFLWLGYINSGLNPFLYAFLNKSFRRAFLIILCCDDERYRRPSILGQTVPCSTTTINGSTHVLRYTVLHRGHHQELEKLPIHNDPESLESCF
T2 sequence (Q13639 whole entry): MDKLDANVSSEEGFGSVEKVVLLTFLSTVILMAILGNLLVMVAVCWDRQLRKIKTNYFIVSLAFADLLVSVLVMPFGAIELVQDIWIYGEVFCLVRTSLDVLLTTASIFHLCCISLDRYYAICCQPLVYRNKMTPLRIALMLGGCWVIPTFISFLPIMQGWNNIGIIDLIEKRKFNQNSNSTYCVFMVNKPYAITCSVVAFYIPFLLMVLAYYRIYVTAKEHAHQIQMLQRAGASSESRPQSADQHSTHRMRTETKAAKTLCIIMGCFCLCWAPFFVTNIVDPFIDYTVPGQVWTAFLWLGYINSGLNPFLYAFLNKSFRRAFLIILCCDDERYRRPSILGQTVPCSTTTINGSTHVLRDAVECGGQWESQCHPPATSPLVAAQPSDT

Compound | Force [1, 14] [mN] | TTP [1, 14] [ms] | dF/dtmax [1, 14] [mN/s] | Force in % of 1 µM 5-HT [1, 15] | TR in % of 1 µM 5-HT [1, 15] | TTP in % of 1 µM 5-HT [1, 15] | dF/dtmax in % of 1 µM 5-HT [1, 15] | dF/dtmin in % of 1 µM 5-HT [1, 15] | EC50 [1, 16] [µM] | EC50 [1, 17] [µM] | EC50 [1, 18] [µM] | EC50 [1, 19] [µM] | EC50 [1, 20] [µM] | Beating rate [2] [bpm] | Beating rate in % of 1 µM 5-HT [2] | effect on beating rate in WT right atrium [3] | effect in Langendorff hearts from WT mice [5] | pD2, beating rate [8] | other results
CN(C)CCc1c[nH]c2ccc(O)cc12 [Bufotenin, 5-hydroxy-N,N-dimethyl-tryptamine] | 6.45 ± 0.75 | 12.84 ± 0.15 | 440.7 ± 61.25 | 91% ± 5% | 103% ± 2% | 98% ± 0% | 87% ± 6% | 88% ± 6% | 0.17 | 0.126 | 0.12 | 0.49 | 0.355 | 396 ± 35 | 107% ± 7% | not WT | inactive | 5.95 | change of the effects in left and right atrium by 50 µM pargyline ([1]; left and right atrium of 5-HT4-TG, 50 µM pargyline): shifted to the left; EC50 ([2]; pD2, beating rate): 0.0912 µM; positive inotropic effect in WT left atrial preparations ([3]; electrically stimulated (1 Hz) left atrium): no effects; force of contraction after drug ([4]; increased from 9.74 ± 1.51 mN): 15.6 ± 1.42 mN; rate of relaxation after drug ([4]; increased from 227 ± 43 mN/s): 515 ± 43 mN/s; rate of force development after drug ([4]; increased from 315 ± 57 mN/s): 653 ± 86 mN/s; inotropic effect in isolated paced human atrial trabeculae ([6]; 0.1–10 µM, 1 Hz): concentration- and time-dependent positive inotropic effects; phosphorylation state of phospholamban [7]: increased; parenteral dose needed to bring about hallucinogenic effects ([9]; parenteral): 10 mg; per-oral dose needed to bring about hallucinogenic effects ([9]; per-oral): 100 mg; phosphorylation state of phospholamban on serine 16 in isolated hearts [10]: not WT; phosphorylation state of phospholamban on serine 16 in isolated hearts ([11]; Langendorff hearts from 5-HT4-TG): increased; phosphorylation state of phospholamban on serine 16 in atria ([11]; atria of 5-HT4-TG): increased
CN1[C@@H]2CC[C@H]1C[C@@H](OC(=O)c1c[nH]c3ccccc13)C2 [Tropisetron, tropisetron] | – | – | – | – | – | – | – | – | – | – | – | – | – | – | – | – | – | – | antagonism of the positive inotropic effect of bufotenin ([6]; tropisetron 10 µM additionally applied): revoked the positive inotropic effect of bufotenin
NCCc1c[nH]c2ccccc12 [Tryptamine, tryptamine] | 5.74 ± 0.84 | 13.28 ± 0.07 | 393.56 ± 52.26 | 81% ± 7% | 97% ± 2% | 94% ± 1% | 78% ± 5% | 82% ± 4% | 26.9 | 18.6 | 18.6 | 2.88 | 6.61 | 388 ± 41 | 105% ± 5% | not from WT | inactive | 4.87 | agonist efficacy on 5-HT4 receptors compared to 5-HT ([1]; 5-HT4-TG atrial preparations): partial agonist; efficacy to increase force of contraction and beating rate compared with isoproterenol ([1]; 5-HT4-TG, 1 µM isoproterenol given after): less effective than isoproterenol; TR [1, 14]: 27.61 ± 1.25 ms; EC50 ([2]; read-out: pD2, beating rate (converted)): 5.37 µM
